{
  "source": "paper PMC6407204",
  "about": "“Oral administration of the cannabigerol derivative VCE-003.2 promotes subventricular zone neurogenesis and protects against mutant huntingtin-induced neurodegeneration” (Translational Neurodegeneration, 2019)",
  "key": {"[1]": {"biological_target": "T1, CYP2B6 (Homo sapiens, UniProt P20813)", "T1 construct": "from tissue; host or cells: human liver microsomes", "T1 sequence (P20813 whole entry)": "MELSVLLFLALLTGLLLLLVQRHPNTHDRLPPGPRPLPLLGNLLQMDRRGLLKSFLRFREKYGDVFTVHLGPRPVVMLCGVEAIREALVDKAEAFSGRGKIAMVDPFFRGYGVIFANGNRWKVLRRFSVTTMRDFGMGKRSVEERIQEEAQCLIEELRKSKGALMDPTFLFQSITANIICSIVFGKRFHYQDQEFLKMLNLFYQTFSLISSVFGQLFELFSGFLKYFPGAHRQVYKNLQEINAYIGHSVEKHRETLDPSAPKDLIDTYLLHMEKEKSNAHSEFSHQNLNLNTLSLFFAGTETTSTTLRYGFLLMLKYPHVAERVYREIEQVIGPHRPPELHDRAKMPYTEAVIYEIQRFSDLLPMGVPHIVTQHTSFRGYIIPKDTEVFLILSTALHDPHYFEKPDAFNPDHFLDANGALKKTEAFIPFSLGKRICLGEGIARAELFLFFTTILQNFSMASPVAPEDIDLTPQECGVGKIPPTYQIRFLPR", "assay": "biochemical", "assay_type": "in vitro ADME", "settings": "Substrate = Bupropion, human liver microsomes", "experimental": "(§1) Supplementary file 40035_2019_148_MOESM2_ESM.pdf: Additional file 2: Cytochrome P450 Inhibition (IC50 Determination). CYP1A Inhibition. VCE-003.2 (0.1, 0.25, 1, 2.5, 10, 25 μM in DMSO; final DMSO concentration = 0.3%) was incubated with human liver microsomes (0.25 mg/mL) and NADPH (1 mM) in the presence of the probe substrate ethoxyresorufin (0.5 μM) for 5 min at 37 °C. The selective CYP1A inhibitor, alpha-naphthoflavone, was screened alongside the test compounds as a positive control. CYP2B6 Inhibition. VCE-003.2 (0.1, 0.25, 1, 2.5, 10, 25 μM in DMSO; final DMSO concentration = 0.3%) was incubated with human liver microsomes (0.1 mg/mL) and NADPH (1 mM) in the presence of the probe substrate bupropion (110 μM) for 5 min at 37 °C. The selective CYP2B6 inhibitor, ticlopidine, was screened alongside the test compounds as a positive control. CYP2C8 Inhibition. VCE-003.2 (0.1, 0.25, 1, 2.5, 10, 25 μM in DMSO; final DMSO concentration = 0.3%) was incubated with human liver microsomes (0.25 mg/mL) and NADPH (1 mM) in the presence of the probe substrate paclitaxel (7.5 μM) for 30 min at 37 °C. The selective CYP2C8 inhibitor, montelukast, was screened alongside the test compounds as a positive control. CYP2C9 Inhibition. VCE-003.2 (0.1, 0.25, 1, 2.5, 10, 25 μM in DMSO; final DMSO concentration = 0.3%) was incubated with human liver microsomes (1 mg/mL) and NADPH (1 mM) in the presence of the probe substrate tolbutamide (120 μM) for 60 min at 37 °C. The selective CYP2C9 inhibitor, sulphaphenazole, was screened alongside the test compounds as a positive control. CYP2C19 Inhibition. VCE-003.2 (0.1, 0.25, 1, 2.5, 10, 25 μM in DMSO; final DMSO concentration = 0.3%) was incubated with human liver microsomes (0.5 mg/mL) and NADPH (1 mM) in the presence of the probe substrate mephenytoin (25 μM) for 60 min at 37 °C. The selective CYP2C19 inhibitor, tranylcypromine, was screened alongside the test compounds as a positive control. CYP2D6 Inhibition. VCE-003.2 (0.1, 0.25, 1, 2.5, 10, 25 μM in DMSO; final DMSO concentration = 0.3%) was incubated with human liver microsomes (0.5 mg/mL) and NADPH (1 mM) in the presence of the probe substrate dextromethorphan (5 μM) for 5 min at 37 °C. […] CYP3A4 Inhibition. VCE-003.2 (0.1, 0.25, 1, 2.5, 10, 25 μM in DMSO; final DMSO concentration = 0.3%) was incubated with human liver microsomes (0.1 mg/mL) and NADPH (1 mM) in the presence of the probe substrate midazolam (2.5 μM) for 5 min at 37 °C. The selective CYP3A4 inhibitor, ketoconazole, was screened alongside the test compounds as a positive control. CYP3A4 Inhibition. VCE-003.2 (0.1, 0.25, 1, 2.5, 10, 25 μM in DMSO; final DMSO concentration = 0.3%) was incubated with human liver microsomes (0.5 mg/mL) and NADPH (1 mM) in the presence of the probe substrate testosterone (50 μM) for 5 min at 37 °C. The selective CYP3A4 inhibitor, ketoconazole, was screened alongside the test compounds as a positive control. For the CYP1A incubations, the reactions were terminated by methanol, and the formation of the metabolite, resorufin, was monitored by fluorescence (excitation wavelength = 535 nm, emission wavelength = 595 nm). For the CYP2B6, CYP2C9, CYP2C19, CYP2D6, and CYP3A4 incubations, the reactions were terminated by methanol. The samples were centrifuged, and the supernatants combined for the simultaneous analysis of 4-hydroxytolbutamide, 4-hydroxymephenytoin, dextrorphan, and 1-hydroxymidazolam by LC-MS/MS. Hydroxybupropion, 6α-hydroxypaclitaxel and 6ß-hydroxytestosterone were analyzed separately by LC-MS/MS. A decrease in the formation of the metabolites compared to vehicle control was used to calculate IC50 values. (PDF 323 kb)"}, "[2]": {"biological_target": "T2, CYP2C19 (Homo sapiens, UniProt P33261)", "T2 construct": "from tissue; host or cells: human liver microsomes", "T2 sequence (P33261 whole entry)": "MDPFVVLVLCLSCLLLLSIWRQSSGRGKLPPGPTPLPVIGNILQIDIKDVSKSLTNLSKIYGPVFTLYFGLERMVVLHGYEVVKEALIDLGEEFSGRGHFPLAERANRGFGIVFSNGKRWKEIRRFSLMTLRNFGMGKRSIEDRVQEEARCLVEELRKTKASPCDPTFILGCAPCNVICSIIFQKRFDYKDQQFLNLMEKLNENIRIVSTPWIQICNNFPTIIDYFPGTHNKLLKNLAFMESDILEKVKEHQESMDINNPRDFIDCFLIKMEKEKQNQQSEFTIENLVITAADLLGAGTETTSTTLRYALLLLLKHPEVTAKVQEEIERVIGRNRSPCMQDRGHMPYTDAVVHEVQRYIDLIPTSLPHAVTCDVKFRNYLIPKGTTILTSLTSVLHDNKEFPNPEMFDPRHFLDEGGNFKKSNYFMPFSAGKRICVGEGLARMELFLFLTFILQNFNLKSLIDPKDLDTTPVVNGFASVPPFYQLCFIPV", "assay": "biochemical", "assay_type": "in vitro ADME", "settings": "Substrate = Mephenytoin, human liver microsomes", "experimental": "as §1"}, "[3]": {"biological_target": "T3, CYP2C8 (Homo sapiens, UniProt P10632)", "T3 construct": "from tissue; host or cells: human liver microsomes", "T3 sequence (P10632 whole entry)": "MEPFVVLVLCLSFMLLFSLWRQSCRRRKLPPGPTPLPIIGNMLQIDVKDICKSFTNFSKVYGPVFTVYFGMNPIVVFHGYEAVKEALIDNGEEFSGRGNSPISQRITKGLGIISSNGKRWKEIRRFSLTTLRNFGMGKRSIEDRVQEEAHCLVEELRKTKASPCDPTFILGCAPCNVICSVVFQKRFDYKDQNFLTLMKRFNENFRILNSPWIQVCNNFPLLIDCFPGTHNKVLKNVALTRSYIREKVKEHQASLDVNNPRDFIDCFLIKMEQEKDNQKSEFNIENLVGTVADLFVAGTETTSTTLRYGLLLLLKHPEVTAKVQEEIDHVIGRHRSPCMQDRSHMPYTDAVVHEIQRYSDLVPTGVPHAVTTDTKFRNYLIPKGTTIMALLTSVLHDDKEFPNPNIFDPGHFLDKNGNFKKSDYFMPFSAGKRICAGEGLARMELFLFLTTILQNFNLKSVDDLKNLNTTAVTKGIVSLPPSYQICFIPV", "assay": "biochemical", "assay_type": "in vitro ADME", "settings": "Substrate = Paclitaxel, human liver microsomes", "experimental": "as §1"}, "[4]": {"biological_target": "T4, CYP2C9 (Homo sapiens, UniProt P11712)", "T4 construct": "from tissue; host or cells: human liver microsomes", "T4 sequence (P11712 whole entry)": "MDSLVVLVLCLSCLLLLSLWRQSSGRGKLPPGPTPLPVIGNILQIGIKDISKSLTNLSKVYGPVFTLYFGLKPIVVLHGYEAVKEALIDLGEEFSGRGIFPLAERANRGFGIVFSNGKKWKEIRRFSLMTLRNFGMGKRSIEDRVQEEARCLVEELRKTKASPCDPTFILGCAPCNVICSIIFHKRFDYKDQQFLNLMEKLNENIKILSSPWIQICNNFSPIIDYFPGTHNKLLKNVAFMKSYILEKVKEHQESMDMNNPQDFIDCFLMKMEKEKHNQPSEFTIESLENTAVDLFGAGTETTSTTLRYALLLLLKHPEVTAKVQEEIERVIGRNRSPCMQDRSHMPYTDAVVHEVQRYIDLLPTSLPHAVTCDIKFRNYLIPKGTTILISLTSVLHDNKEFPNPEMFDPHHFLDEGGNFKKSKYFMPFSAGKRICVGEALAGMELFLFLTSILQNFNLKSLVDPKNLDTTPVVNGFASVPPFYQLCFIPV", "assay": "biochemical", "assay_type": "in vitro ADME", "settings": "Substrate = Tolbutamide, human liver microsomes", "experimental": "as §1"}, "[5]": {"tested_on": "liver", "assay": "Hepatotoxicity of chronic administration, liver hematoxylin-eosin staining", "assay_type": "in vivo", "settings": "mouse, data not shown", "experimental": "As VCE-003.2 was previously shown to exert a neuroprotective action in preclinical HD models, and considering its pro-neurogenic profile, we evaluated the pathophysiological impact and potential therapeutic value of VCE-003.2 after oral administration. Pharmacokinetic analyses were performed in rats after oral administration of VCE-003.2 (50 mg/kg) dissolved in sesame oil. Plasma VCE-003.2 levels peaked at 8 h (Tmax) and then slowly declined to basal levels. […] We also investigated some critical ADME/Tox parameters. […] We also determined the potential hepatotoxicity of chronic VCE-003.2 administration by hematoxylin-eosin staining. […] We also determined the impact of VCE-003.2 administration on peripheral biomarkers by quantifying the levels of cytokines and other soluble mediators."}, "[6]": {"tested_on": "osteoblast differentiation", "settings": "compared with full PPARγ-agonists; cited from earlier work"}},
  "data": [
    {"smiles": "CCCCCC1=C(NCC)C(=O)C(CC=C(C)CCC=C(C)C)=C(O)C1=O", "note": "[VCE-003.2, 2-(3,7-dimethyl-octa-2,6-dienyl)-6-ethylamino-3-hydroxy-5-pentyl-(1,4) benzoquinone]", "values": [
      {"measurement": "IC50", "setting": "[1]", "result": "> 25", "unit": "µM"},
      {"measurement": "IC50", "setting": "[2]", "result": "> 25", "unit": "µM"},
      {"measurement": "IC50", "setting": "[3]", "result": "13 ± 2.4", "unit": "µM"},
      {"measurement": "IC50", "setting": "[4]", "result": "15.7 ± 1.96", "unit": "µM"},
      {"measurement": "hepatotoxicity, liver histology", "setting": "[5]", "result": "did not show any evidence of fibrosis, steatosis, vacuolization, ballooning or inflammation"},
      {"measurement": "interference with osteoblast differentiation", "setting": "[6]", "result": "does not interfere with osteoblast differentiation"}
    ]}
  ]
}
